Experimental data published in patent US9730906B2, “α-derivatives of cis-monounsaturated fatty acids for use as medicines” (UNIVERSITAT DE LES ILLES BALEARS, priority 2008, dated 2017).

How the values were obtained:
A549 cells = assay: Growth/viability of A549 lung cancer cells in culture (cell count); type: cell-based, human; settings: concentration that reduces the number of cells to half
Experimental: FIG. 3A. Cancer cells (A549) were treated with various concentrations of OHOD and MOD11 to determine whether the effect was dependent on the concentration. […] These cells were treated with different concentrations (0-400 μM) of OHOD and MOD11 and the number of cells was determined by flow cytometry.
FIG. 3B. Cancer cells (A549) were treated with compounds indicated on the horizontal axis for 48 hours at 150 μM. Then, the cells were counted and their number and percent of untreated (control) represented on the vertical axis.
Also, a series of α-derivatives of cis-monounsaturated fatty acids were used to investigate their effectiveness in cancer treatment. Two types of experiment were performed. Firstly, the dependency of the anti-tumour effect on concentration was investigated. To perform these experiments, human lung cancer cells (A549) were cultivated in RPMI medium, supplemented with 10% foetal bovine […], 10 mM Hepes (pH 7.4), 2 mM glutamine, 2 g/l bicarbonate, 1 g/l glucose, 100 units/ml penicillin, 0.1 mg/ml streptomycin, 0.25 μg/ml Amphotericin B, at 37° C. and in the presence of 5% CO2. In a first experimental series, these cells were treated with various concentrations (0-400 μM) of OHOD and MOD11 and the number of cells was determined by flow cytometry (FIG. 3A). […] In a second series, the anti-tumour effectiveness on A549 lung cancer cells was investigated at a single concentration (150 μM) and a time of 48 hours (FIG. 3B). […] Obviously, among the previous molecules, some lacked both modifications on the α-carbon and the double bond in cis configuration (EO, HDO, ODO) and had no therapeutic effect. […]

SF767 human tumour cells = assay: Growth of SF767 tumour cells in culture; type: cell-based; settings: concentration that reduces the number of cells to half
Experimental: In a second experimental series, designed to discover whether these molecules are effective in treatment of different types of tumours, the effect of OHOD at various concentrations on human cells of different types of cancer was studied. These experiments were performed as described before, except that the M220 and HT-29 cell lines were cultured in DMEM medium and the MDA-MB-231 line was incubated in Leibowitz L-15 medium supplemented with 15% foetal bovine […]. […] Where the nature of the tumour process requires, application can be topical (use on the skin of active products for the treatment of melanoma and other cutaneous abnormalities of cancerous nature), which can be considered as cosmetic treatments when attempts are made to correct aesthetic defects.

[1] = system: SF767 human brain cancer cells; assay: Tumour volume in nude mice infected with SF767 human brain cancer cells; type: in vivo; settings: 600 mg/kg daily for 50 days, p<0.001 vs control
Experimental: FIG. 6A. Effect of different salts of OHOD on human lung cancer in an animal cancer model. The volume of tumours in nude mice infected with SF767 human brain cancer cells (expressed as a percent compared to control) receiving various treatments. The animals received a vehicle (water: Control), 600 mg/kg of OHOD in the form of free fatty acid (OHOD), 600 mg/kg of sodium salt of OHOD (Na-OHOD) or 600 mg/kg of ammonium salt of OHOD (NH3OHOD) daily for 50 days.
FIG. 6B. Effect of different salts of OHOD on human lung cancer in an animal cancer model. The effect of different doses of sodium salt of OHOD (Na-OHOD) are shown on tumour volumes in mice infected with SF767 cells and treated with vehicle (control, 0 mg/kg), 100 mg/kg (100), 200 mg/kg (200), 400 mg/kg (400) and 600 mg/kg (600) for 50 days. * p<0.05; ***p<0.001.
One important characteristic of the molecules covered in the present invention is that they can form various types of salts. FIG. 6A and Table 5 show the therapeutic effects of various α-derivatives of cis-monounsaturated fatty acids and their salts. […] The specificity of this effect is determined by the relation between the dose and the effect these molecules have on the volume of human tumours implanted in animals (FIG. 6B).

hypertensive rats = assay: Arterial pressure in hypertensive rats after 8-day treatment (Table 5); type: in vivo, rat; settings: arterial pressure, hypertensive rats, 8-day treatment, 400 mg/kg oral
[2] = Levels of cholesterol, triglycerides and glucose in rats after oral treatment; type: in vivo, rat; settings: rats, daily dose of 600 mg/kg oral; untreated controls = 100%
Experimental: FIG. 13. The four bars, from left to right respectively, show the effect of treatments with vehicle (control, first bar), OHOD at 200 mg/kg (second bar), OHOD at 400 mg/kg (third bar) and OHOD at 600 mg/kg (fourth bar) on the cholesterol levels (group of four bars to the left), triglycerides (group of four bars in the middle) and glucose (group of four bars to the right). The treatments were oral in all cases and were maintained for 30 days. The values indicated are the average obtained in 6 animals per group.
FIG. 14. Effect of treatment with vehicle (control) or with the fatty acids of the invention (600 mg/kg) on the levels of cholesterol, triglycerides and glucose. The values indicated are the average of the values obtained in 6 animals. Each group of three bars represents treatment with a different fatty acid with the left bar corresponding to cholesterol, the middle bar to triglycerides and the right bar to glucose.
Metabolic diseases form a set of pathologies characterised by the accumulation or deficit of certain molecules (cholesterol, triglycerides, glucose, etc.) in the serum or tissues. These changes are the reflection of dysfunctions that are normally associated with errors in the activity of certain enzymes or in the control of these proteins. Among the most important metabolopathies are hypercholesterolemia (elevated levels of cholesterol), hypertriglyceridemia (elevated levels of triglycerides) and diabetes (elevated levels of glucose). These pathologies have high rates of incidence, morbidity and mortality, so that treatment is a first order necessity. […] For these experiments, the dose of fatty acid indicated (0, 200, 400 and 600 mg/kg) was supplied daily via the oral route. At the end of the treatment (30 days), blood was sampled from control and treated animals (n=6) and the levels of cholesterol, triglycerides and glucose were determined using standard colorimetric methods.
(§1) In a further experiment, the effect of various molecules at a single dose (600 mg/kg) was investigated. […] In this sense, modification on the α-carbon and the double bond in cis configuration are crucial elements for producing the therapeutic effect indicated above. […] Finally, the effect of α-derivatives of cis-monounsaturated fatty acids on the prevention of obesity was investigated. For this, a model of rat obesity induced by a cafeteria diet, where the hypercaloric food increases the weight of the animals very markedly, was used. There were various experimental groups (see Table 3), each of which consisted of 6 female Wistar Kyoto rats of 250-300 g in weight. All the animals received a standard diet for 2 weeks. In addition, 2 of the groups received an oral preventative pre-treatment of vehicle and the other groups received 300 mg/kg of the fatty acids indicated below. Afterwards, one of the control groups was maintained on a standard diet (lean control) and the other was fed on a cafeteria diet (obese control). The treated animal groups were fed on the cafeteria diet. Preventative pre-treatment was maintained for all the groups. After two weeks on these diets, the lean control group had increased their body weight by an average of 16±16 g, while the obese control group had increased their body weight by an average of 43±17 g (statistically significance difference, p<0.01).

[3] = Body weight of rats on cafeteria diet, no pre-treatment (Table 5); type: in vivo, rat; settings: cafeteria diet for 2 weeks, 300 mg/kg daily oral, no pre-treatment
Description: (§2) The weight of treated animals was statistically less than the weight of obese control rats and statistically indistinguishable from that of lean control rats.

[4] = system: A549 cells of human lung adenocarcinoma; assay: Prevention of tumour development in nude mice injected with A549 cells; type: in vivo; settings: 400 mg/kg per day oral, 2 weeks before and one month after A549 injection, compared with fatty acids not of Formula I, p<0.05
Description: FIG. 2. Preventative effect of various fatty acids against tumour development. […] Animals received treatment before injection of tumour cells and the treatment was subsequently maintained. Animals of the control group were not treated and the volume of their tumours was taken as the reference value (100%).
To determine whether the fatty acids of the invention have applications in the prevention of the development of tumour processes, an animal cancer model was used. This model consisted of immune-deprived animals ([Crl:Nu(Ico)-Fox 1] nude mice in which non-microcytic human lung cancer cells were injected (5×10^6 A549 cells per animal). The control group (infected with cancer cells but untreated) started to develop tumours that were visible after a few days. The sizes of the tumours were measured for the first time at 10 days after implanting the tumour and measurements continued for up to 31 days after the implantation with a digital calliper. The volume of the tumours was calculated with the following equation: v=w^2×l/2 where v is the volume of the tumour, w is its width and l is the length. Preventative treatments against development of the cancer were applied. To carry out these treatments, 400 mg/kg were administered per day for 2 weeks before the injection of tumour cells. This treatment was continued for one month after the implantation of the tumour cells and the volume of the tumours in the animals was measured. Each experimental group was composed of 8 animals. Oral administration of α-derivatives of cis-monounsaturated fatty acids prevented cancer development (A549 cells of human lung adenocarcinoma) (FIG. 2). […] Therefore it was concluded that the introduction of a double bond in the cis configuration in the structure of the fatty acid is a critical factor in the prevention and treatment by fatty acids of cancer development.

[5] = Rat obesity induced by cafeteria diet, preventative pre-treatment (Table 3); type: in vivo, Wistar Kyoto rats; settings: 300 mg/kg oral, after two weeks on cafeteria diet; obese control 308 ± 17, lean control 280 ± 16; * lower than obese controls, ‡ indistinguishable
Experimental: as §1, §2

IL-6 = assay: Proinflammatory cytokines in U937 monocytes stimulated with LPS; type: cell-based, human; settings: 250 μM, 72 h; Control 24 ± 3, LPS 1072 ± 4
Experimental: (§3) FIG. 18. Levels of interleukin 6 IL-6 (left bar) and […] TNF-α (right bar) in human monocytes in the absence (control) or presence of a pro-inflammatory treatment with bacterial lipopolysaccharide (LPS). Cells treated with LPS were cultured in the absence (Control+LPS) or presence of various fatty acids shown on the horizontal axis.
(§4) In an additional study on the release of various proinflammatory cytokines (IL-1b, IL-6, IL-8, IL-10) and TNF-α in U937 monocytes stimulated with bacterial lipopolysaccharide (LPS), a marked reduction in the levels of these molecules was observed after treatments with OHHD at a concentration of 250 μM and 72 h incubation (Table 4). The effect of the α-derivatives of cis-monounsaturated fatty acids (250 μM, 6 h) on the activity and expression of the COX-1 and COX-2 cyclooxygenases was investigated in the same system.

TNF-α = assay: as above; type: cell-based, human; settings: 250 μM, 72 h; Control 15 ± 6, LPS 1504 ± 7
Experimental: as §3, §4

IL-10 = assay: as above; type: cell-based, human; settings: 250 μM, 72 h; Control 32 ± 1, LPS 315 ± 9
Experimental: as §4

IL-1b = assay: as above; type: cell-based, human; settings: 250 μM, 72 h; Control 12 ± 2, LPS 132 ± 2
Experimental: as §4

IL-8 = assay: as above; type: cell-based, human; settings: 250 μM, 72 h; Control 345 ± 7, LPS 967 ± 8
Experimental: as §4

[6] = biological target: T1, cyclooxygenases-1 (COX-1) (Homo sapiens, UniProt P23219); assay: COX-1 activity in U937 differentiated monocytes (Cayman COX-1 inhibitor screening system); type: cell-based; settings: 250 μM, 6 hours; compared with fatty acids not of Formula I, p<0.05
T1 construct: endogenous in cells; host or cells: U937 differentiated monocytes
T1 sequence (P23219 24-599): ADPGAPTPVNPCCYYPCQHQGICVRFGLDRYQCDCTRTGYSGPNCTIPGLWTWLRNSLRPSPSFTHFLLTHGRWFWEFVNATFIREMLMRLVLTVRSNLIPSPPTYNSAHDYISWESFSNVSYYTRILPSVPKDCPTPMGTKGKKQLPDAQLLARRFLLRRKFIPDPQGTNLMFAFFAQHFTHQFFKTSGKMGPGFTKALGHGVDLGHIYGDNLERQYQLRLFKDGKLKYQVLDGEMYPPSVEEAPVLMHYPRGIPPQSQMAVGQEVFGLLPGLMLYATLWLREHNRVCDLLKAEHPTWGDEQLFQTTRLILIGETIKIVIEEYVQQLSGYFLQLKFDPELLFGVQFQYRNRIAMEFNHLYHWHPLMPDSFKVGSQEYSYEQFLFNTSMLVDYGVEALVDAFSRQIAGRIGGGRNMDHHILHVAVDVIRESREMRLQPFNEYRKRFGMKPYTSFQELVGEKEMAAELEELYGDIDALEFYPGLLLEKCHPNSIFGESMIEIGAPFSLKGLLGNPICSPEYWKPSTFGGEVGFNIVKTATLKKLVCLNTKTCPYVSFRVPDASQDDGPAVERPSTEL
Experimental: FIG. 19A. Effect of various fatty acids in the inhibition of the activity of cyclooxygenases-1 (COX-1) (Cayman COX-1 inhibitor screening system). […] Cell cultures (U937 differentiated monocytes) were treated with the fatty acids of the invention (250 μM, 6 hours).
as §4

cyclooxygenase-2 (COX-2) = assay: Cellular concentration of COX-2 in U937 differentiated monocytes (immunoblot); type: cell-based, human; settings: 250 μM, 6 hours; compared with fatty acids not of Formula I, p<0.05
Experimental: FIG. 19B. Effect of various fatty acids in the inhibition (concentration of protein) of cyclooxygenase-2 (immunoblot of COX-2). […] Cell cultures (U937 differentiated monocytes) were treated with the fatty acids of the invention (250 μM, 6 hours).
as §4

| IC50 (A549 cells) | IC50 (SF767 human tumour cells) | inhibition of COX-1 activity (% of control) [6] | cellular concentration of COX-2 (% of control) (cyclooxygenase-2 (COX-2)) | SMILES | volume of tumours (percent compared to control) [1] | PA (control 214 mmHg) (hypertensive rats) | % control CHO (cholesterol) [2] | % control TG (triglycerides) [2] | Body weight (g) (control = 311 g) [3] | tumour volume (prevention of tumour development) [4] | Final weight [5] | IL-6, LPS + OHHD (IL-6) | TNF-α, LPS + OHHD (TNF-α) | IL-10, LPS + OHHD (IL-10) | IL-1b, LPS + OHHD (IL-1b) | IL-8, LPS + OHHD (IL-8) |
| --- | --- | --- | --- | --- | --- | --- | --- | --- | --- | --- | --- | --- | --- | --- | --- | --- |
| 81 µM | 85 µM | – | – | CCCCCCCC/C=C\CCCCCCC(O)C(=O)O.N (stereo not shown) [NH3-OHOD] | significant reductions in the size of tumours | 149 mmHg | 59 % control | 62 % control | 290 g | – | – | – | – | – | – | – |
| – | – | more significant effect | more significant effect | CCCCCC/C=C\CCCCCCC(O)C(=O)O (stereo not drawn) [OHHD, α-Hydroxy-cis-Δ9-hexadecenoic] | – | – | – | – | – | more significant effect | 275 ± 19* g | 68 ± 8 pg/mL | 65 ± 9 pg/mL | 53 ± 3 pg/mL | 41 ± 5 pg/mL | 529 ± 7 pg/mL |
